According to patent publication EP4722207A1, “OXOISOINDOLINYL-SUBSTITUTED TETRAHYDROPYRIMIDINEDIONE DERIVATIVE AND USE THEREOF” (Gluetacs Therapeutics (Shanghai) Co., Ltd., priority 2023, dated 2024):

What was measured:
WEE1 = target: T1, WEE1 (Homo sapiens, UniProt P30291+Q96SW2); test: Western-blot assay, substrate protein degradation in hPBMCs: WEE1; type: cell-based; details: for substrate protein remaining % WEE1: 24 hours of compound treatment, 50 nM and 500 nM
T1 construct: effects of the compounds of the present disclosure on the expression of target proteins in cells; endogenous in cells; host or cells: human PBMCs (hPBMCs)

IKZF1 = target: T2, IKZF1 (Homo sapiens, UniProt Q13422+Q96SW2); test: Western-blot assay, substrate protein degradation in hPBMCs: IKZF1; type: cell-based; details: for substrate protein remaining % IKZF1: 24 hours of compound treatment, 50 nM and 500 nM
T2 construct: effects of the compounds of the present disclosure on the expression of target proteins in cells; endogenous in cells; host or cells: human PBMCs (hPBMCs)

IKZF2 = target: T3, IKZF2 (Homo sapiens, UniProt Q96SW2+Q9UKS7); test: Western-blot assay, substrate protein degradation in hPBMCs: IKZF2; type: cell-based; details: for substrate protein remaining % IKZF2: 24 hours of compound treatment, 50 nM and 500 nM
T3 construct: effects of the compounds of the present disclosure on the expression of target proteins in cells; endogenous in cells; host or cells: human PBMCs (hPBMCs)

IKZF3 = target: T4, IKZF3 (Homo sapiens, UniProt Q96SW2+Q9UKT9); test: Western-blot assay, substrate protein degradation in hPBMCs: IKZF3; type: cell-based; details: for substrate protein remaining % IKZF3: 24 hours of compound treatment, 50 nM and 500 nM
T4 construct: effects of the compounds of the present disclosure on the expression of target proteins in cells; endogenous in cells; host or cells: human PBMCs (hPBMCs)

CK1α = target: T5, CK1α (Homo sapiens, UniProt P48729+Q96SW2); test: Western-blot assay, substrate protein degradation in hPBMCs: CK1α; type: cell-based; details: for substrate protein remaining % CK1α: 24 hours of compound treatment, 50 nM and 500 nM
T5 construct: effects of the compounds of the present disclosure on the expression of target proteins in cells; endogenous in cells; host or cells: human PBMCs (hPBMCs)

GSPT1 = target: T6, GSPT1 (Homo sapiens, UniProt P15170+Q96SW2); test: Western-blot assay, substrate protein degradation in hPBMCs: GSPT1; type: cell-based; details: for substrate protein remaining % GSPT1: 24 hours of compound treatment, 50 nM and 500 nM
T6 construct: effects of the compounds of the present disclosure on the expression of target proteins in cells; endogenous in cells; host or cells: human PBMCs (hPBMCs)

MM.1S = test: Cell viability assay (CellTiter-Meiluncell Luminescent), tumor cell proliferation, MM.1S; details: Homo sapiens, MM1.S, 96 h, read-out: inhibitory activity (IC50, nM) against tumor cells proliferation, MM.1S
H292 = test: Cell viability assay (CellTiter-Meiluncell Luminescent), tumor cell proliferation, H292; details: Homo sapiens, NCI-H292, 96 h; for inhibition at 0.01 µM: read-out: Inhibition Rate at 10 nM (%); for inhibition at 0.5 µM: read-out: Inhibition Rate at 500 nM (%)
Protocol: (§1) The tumor cells used herein were cultured in a cell culture medium listed in table 2 at 37°C in an incubator with 5% CO2. Prior to experimentation, all cell lines used were correctly identified by STR profiling, and tested negative for mycoplasma contamination using a mycoplasma detection kit through routine screenings.
(§2) On the following day, the test compounds of the present disclosure were subjected to serial dilution. […] Subsequently, 0.5 µL of the test compound dilution was transferred into the 96-well plate containing the cells, with each well containing 100 µL of cell culture medium. […] Into the 96-well plate, the diluted test compounds and corresponding detection reagents were added, resulting in final test compound concentrations of 500 nM and 10 nM, respectively. The experimental procedure is described below using the diluted 2 µM test compound as an example.
(§3) After the cells were treated with the compounds of the present disclosure for a specified period, the cell viability assay reagent was added to the culture medium according to the kit's instructions to determine cell viability. […] All controls were treated using the same procedure as the compounds of the present disclosure. The growth inhibition curves for the compounds of the present disclosure were plotted using Prism GraphPad software, and the IC50 values were calculated therefrom.

MV-4-11 = test: Cell viability assay (CellTiter-Meiluncell Luminescent), tumor cell proliferation, MV-4-11; details: Homo sapiens, MV4-11, 96 h; for inhibition at 0.01 µM: read-out: Inhibition Rate at 10 nM (%); for inhibition at 0.5 µM: read-out: Inhibition Rate at 500 nM (%)
Protocol: as §1, §2, §3

MDA-MB-231 = test: Cell viability assay (CellTiter-Meiluncell Luminescent), tumor cell proliferation, MDA-MB-231; details: Homo sapiens, MDA-MB-231, 96 h; for inhibition at 0.01 µM: read-out: Inhibition Rate at 10 nM (%); for inhibition at 0.5 µM: read-out: Inhibition Rate at 500 nM (%)
Protocol: as §1, §2, §3

[1] = compounds at 50 nM and 500 nM, 24 hours

T4 sequence (Q9UKT9 whole entry): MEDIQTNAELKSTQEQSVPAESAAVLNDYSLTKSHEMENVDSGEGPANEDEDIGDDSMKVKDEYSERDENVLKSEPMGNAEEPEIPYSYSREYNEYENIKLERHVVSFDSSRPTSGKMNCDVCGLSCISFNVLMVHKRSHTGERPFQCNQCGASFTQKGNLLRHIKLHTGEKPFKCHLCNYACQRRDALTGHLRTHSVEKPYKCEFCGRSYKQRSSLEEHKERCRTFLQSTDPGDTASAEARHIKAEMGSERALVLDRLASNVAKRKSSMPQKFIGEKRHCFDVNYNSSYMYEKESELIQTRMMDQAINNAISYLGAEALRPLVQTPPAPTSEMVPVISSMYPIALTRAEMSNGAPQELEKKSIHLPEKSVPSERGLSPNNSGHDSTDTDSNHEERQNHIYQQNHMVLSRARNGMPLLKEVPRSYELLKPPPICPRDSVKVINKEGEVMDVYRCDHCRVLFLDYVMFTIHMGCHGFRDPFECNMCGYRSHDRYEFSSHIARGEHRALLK
T4 sequence (Q96SW2 whole entry): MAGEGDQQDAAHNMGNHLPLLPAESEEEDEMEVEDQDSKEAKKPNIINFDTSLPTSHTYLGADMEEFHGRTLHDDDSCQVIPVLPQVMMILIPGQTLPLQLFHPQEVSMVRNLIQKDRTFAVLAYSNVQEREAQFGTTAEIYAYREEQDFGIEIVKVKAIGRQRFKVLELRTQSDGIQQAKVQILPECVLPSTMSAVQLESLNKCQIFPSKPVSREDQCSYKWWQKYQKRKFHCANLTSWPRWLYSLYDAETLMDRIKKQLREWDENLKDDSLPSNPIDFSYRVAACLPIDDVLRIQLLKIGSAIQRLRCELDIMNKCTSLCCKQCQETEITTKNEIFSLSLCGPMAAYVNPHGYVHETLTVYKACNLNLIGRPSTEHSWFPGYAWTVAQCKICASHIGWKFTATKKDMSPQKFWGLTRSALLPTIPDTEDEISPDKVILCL
T4 sequence (Q16531 whole entry partner): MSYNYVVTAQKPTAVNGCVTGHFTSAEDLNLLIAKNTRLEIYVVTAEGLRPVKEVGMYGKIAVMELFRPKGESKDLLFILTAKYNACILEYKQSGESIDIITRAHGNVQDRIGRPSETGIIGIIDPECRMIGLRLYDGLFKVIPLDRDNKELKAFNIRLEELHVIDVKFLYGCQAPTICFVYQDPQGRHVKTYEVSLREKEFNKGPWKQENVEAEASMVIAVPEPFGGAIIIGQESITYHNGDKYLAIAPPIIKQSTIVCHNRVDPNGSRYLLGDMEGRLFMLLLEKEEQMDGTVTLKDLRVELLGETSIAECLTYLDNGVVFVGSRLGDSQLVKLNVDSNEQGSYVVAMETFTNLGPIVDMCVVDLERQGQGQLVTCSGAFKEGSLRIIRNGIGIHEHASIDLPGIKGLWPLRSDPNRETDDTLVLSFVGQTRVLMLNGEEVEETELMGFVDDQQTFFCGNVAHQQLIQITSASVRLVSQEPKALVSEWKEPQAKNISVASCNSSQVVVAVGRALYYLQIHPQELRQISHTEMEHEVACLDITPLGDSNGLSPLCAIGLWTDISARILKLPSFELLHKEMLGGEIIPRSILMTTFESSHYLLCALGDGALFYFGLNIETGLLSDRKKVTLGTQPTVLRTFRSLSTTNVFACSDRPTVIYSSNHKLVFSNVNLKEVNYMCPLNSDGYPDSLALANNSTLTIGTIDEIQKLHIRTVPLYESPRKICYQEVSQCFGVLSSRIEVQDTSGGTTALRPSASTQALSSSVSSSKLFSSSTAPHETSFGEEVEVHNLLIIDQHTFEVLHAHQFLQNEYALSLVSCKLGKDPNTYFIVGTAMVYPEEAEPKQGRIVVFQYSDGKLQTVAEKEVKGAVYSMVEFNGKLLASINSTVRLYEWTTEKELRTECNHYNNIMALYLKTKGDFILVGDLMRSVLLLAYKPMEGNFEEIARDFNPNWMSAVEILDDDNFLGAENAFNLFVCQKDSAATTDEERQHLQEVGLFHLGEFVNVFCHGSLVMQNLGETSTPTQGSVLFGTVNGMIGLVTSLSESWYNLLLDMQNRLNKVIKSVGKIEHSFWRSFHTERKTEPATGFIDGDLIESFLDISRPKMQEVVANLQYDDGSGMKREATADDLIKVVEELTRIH
T3 sequence (Q9UKS7 whole entry): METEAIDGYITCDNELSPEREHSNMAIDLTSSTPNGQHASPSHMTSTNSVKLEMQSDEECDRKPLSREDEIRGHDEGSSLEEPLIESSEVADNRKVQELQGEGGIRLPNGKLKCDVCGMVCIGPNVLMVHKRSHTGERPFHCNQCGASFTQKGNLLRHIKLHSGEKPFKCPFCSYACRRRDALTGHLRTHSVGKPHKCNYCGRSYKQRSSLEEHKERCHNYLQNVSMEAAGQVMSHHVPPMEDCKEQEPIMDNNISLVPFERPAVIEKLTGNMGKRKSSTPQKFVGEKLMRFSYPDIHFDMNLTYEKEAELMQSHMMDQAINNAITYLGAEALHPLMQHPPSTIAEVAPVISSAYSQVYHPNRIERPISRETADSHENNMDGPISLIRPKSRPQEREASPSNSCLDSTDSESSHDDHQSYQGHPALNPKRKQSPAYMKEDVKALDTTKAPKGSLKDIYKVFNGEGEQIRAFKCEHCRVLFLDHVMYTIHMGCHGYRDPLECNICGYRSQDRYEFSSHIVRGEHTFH
T3 sequence (Q96SW2 whole entry): as the sequence (Q96SW2 whole entry) above
T3 sequence (Q16531 whole entry partner): as the sequence (Q16531 whole entry partner) above
T6 sequence (P15170 whole entry): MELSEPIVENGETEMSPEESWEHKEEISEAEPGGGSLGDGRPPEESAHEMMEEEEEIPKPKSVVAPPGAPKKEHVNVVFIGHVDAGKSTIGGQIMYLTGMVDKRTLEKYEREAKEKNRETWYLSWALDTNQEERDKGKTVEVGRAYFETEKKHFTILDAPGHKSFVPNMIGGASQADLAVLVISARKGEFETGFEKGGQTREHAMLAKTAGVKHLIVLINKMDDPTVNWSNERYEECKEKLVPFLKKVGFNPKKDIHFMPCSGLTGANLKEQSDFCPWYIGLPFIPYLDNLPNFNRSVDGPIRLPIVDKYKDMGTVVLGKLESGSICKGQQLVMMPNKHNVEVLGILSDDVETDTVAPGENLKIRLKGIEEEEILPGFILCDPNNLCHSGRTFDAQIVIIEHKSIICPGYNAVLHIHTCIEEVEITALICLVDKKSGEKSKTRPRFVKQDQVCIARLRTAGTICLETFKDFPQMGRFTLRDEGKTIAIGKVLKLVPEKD
T6 sequence (Q96SW2 whole entry): as the sequence (Q96SW2 whole entry) above
T6 sequence (Q16531 whole entry partner): as the sequence (Q16531 whole entry partner) above
T2 sequence (Q13422 whole entry): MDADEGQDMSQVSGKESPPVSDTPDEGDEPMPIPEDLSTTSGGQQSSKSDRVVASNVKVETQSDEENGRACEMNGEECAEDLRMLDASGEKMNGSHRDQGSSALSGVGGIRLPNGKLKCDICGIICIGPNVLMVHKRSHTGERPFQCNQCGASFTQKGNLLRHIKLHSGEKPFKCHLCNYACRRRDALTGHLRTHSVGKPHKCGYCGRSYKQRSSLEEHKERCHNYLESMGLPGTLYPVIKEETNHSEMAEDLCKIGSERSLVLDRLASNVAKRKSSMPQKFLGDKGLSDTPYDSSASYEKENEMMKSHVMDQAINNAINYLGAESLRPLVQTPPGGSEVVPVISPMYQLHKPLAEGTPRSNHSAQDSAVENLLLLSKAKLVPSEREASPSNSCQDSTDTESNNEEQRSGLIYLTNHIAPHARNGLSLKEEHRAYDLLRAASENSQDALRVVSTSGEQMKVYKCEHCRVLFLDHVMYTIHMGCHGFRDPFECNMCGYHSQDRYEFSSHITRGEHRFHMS
T2 sequence (Q96SW2 whole entry): as the sequence (Q96SW2 whole entry) above
T2 sequence (Q16531 whole entry partner): as the sequence (Q16531 whole entry partner) above
T1 sequence (P30291 whole entry): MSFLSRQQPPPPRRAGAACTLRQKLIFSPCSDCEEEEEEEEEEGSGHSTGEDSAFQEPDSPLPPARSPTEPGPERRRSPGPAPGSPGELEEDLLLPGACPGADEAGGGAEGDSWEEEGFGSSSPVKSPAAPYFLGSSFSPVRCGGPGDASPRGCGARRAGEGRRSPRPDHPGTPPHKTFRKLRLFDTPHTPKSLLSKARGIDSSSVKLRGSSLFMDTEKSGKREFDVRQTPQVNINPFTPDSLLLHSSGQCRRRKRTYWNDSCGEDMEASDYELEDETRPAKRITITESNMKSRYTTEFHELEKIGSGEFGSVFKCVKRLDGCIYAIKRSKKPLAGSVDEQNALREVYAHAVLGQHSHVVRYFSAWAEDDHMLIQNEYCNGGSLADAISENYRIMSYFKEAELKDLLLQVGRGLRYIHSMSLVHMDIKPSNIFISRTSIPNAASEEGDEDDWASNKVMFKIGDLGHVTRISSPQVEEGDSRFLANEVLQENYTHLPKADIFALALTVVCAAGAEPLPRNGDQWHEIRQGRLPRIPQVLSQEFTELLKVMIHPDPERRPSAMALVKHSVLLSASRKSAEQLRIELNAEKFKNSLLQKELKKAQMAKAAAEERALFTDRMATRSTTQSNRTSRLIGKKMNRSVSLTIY
T1 sequence (Q96SW2 whole entry): as the sequence (Q96SW2 whole entry) above
T1 sequence (Q16531 whole entry partner): as the sequence (Q16531 whole entry partner) above

Row | Compound | WEE1 substrate protein remaining % (WEE1; [1]) | IKZF1 substrate protein remaining % (IKZF1; [1]) | IKZF2 substrate protein remaining % (IKZF2; [1]) | IKZF3 substrate protein remaining % (IKZF3; [1]) | CK1α substrate protein remaining % (CK1α; [1]) | GSPT1 substrate protein remaining % (GSPT1; [1]) | IC50 (MM.1S) [nM] | inhibition at 0.01 µM (H292) [%] | inhibition at 0.5 µM (H292) [%] | inhibition at 0.01 µM (MV-4-11) [%] | inhibition at 0.5 µM (MV-4-11) [%] | inhibition at 0.01 µM (MDA-MB-231) [%] | inhibition at 0.5 µM (MDA-MB-231) [%] | substrate protein remaining % WEE1 (WEE1) | substrate protein remaining % IKZF1 (IKZF1) | substrate protein remaining % IKZF2 (IKZF2) | substrate protein remaining % IKZF3 (IKZF3) | substrate protein remaining % CK1α (CK1α) | substrate protein remaining % GSPT1 (GSPT1)
1 | Cc1ccc(Sc2ccccc2N2CCN(Cc3ccc4c(c3)CN(N3CCC(=O)NC3=O)C4=O)CC2)c(C)c1 [GT-04867, 1-(5-((4-(2-((2,4-dimethylphenyl)thio)phenyl)piperazin-1-yl)methyl)-1-oxoisoindolin-2-yl)dihydropyrimidine-2,4(1H,3H)-dione] | B ("B" is defined as 80%< substrate protein remaining %≤ 100%) | A ("A" is defined as 0% ≤ substrate protein remaining % ≤ 80%) | B ("B" is defined as 80%< substrate protein remaining %≤ 100%) | B ("B" is defined as 80%< substrate protein remaining %≤ 100%) | B ("B" is defined as 80%< substrate protein remaining %≤ 100%) | A ("A" is defined as 0% ≤ substrate protein remaining % ≤ 80%) | 500 to 1000 |  |  |  |  |  |  |  |  |  |  |  | 
2 | O=C1CCN(N2Cc3cc(CNC45CC6CC(CC(C6)C4)C5)ccc3C2=O)C(=O)N1 [GT-07806, 1-(5-((((3s,5s,7s)-adamantan-1-yl)amino)methyl)-1-oxoisoindolin-2-yl)dihydropyrimidine-2,4(1H,3H)-dione] |  |  |  |  |  |  |  | 15 to 20 | 15 to 20 | 5 to 10 | 25 to 30 | 18 to 25 | 18 to 25 |  |  |  |  |  | 
3 | O=C1CCN(N2C(=O)c3ccc(CN4CC(=C5CCOc6cc(F)ccc65)C4)cc3C2=O)C(=O)N1 [GT-07888, 2-(2,4-dioxotetrahydropyrimidin-1(2H)-yl)-5-((3-(7-fluorochroman-4-ylidene)azetidin-1-yl)methyl)isoindoline-1,3-dione] |  |  |  |  |  |  |  | 5 to 10 | 10 to 15 | 40 to 60 | 40 to 60 | 18 to 25 | 18 to 25 |  |  |  |  |  | 
4 | O=C1CCN(N2Cc3cc(CN4CCN(c5ncnc6sc(Br)cc56)CC4)ccc3C2=O)C(=O)N1 [GT-08063, 1-(5-((4-(6-bromothieno[2,3-d]pyrimidin-4-yl)piperazin-1-yl)methyl)-1-oxoisoindolin-2-yl)dihydropyrimidine-2,4(1H,3H)-dione] |  |  |  |  |  |  |  | 20 to 40 | 20 to 40 | 18 to 25 | 5 to 10 | 15 to 18 | 15 to 18 | B (80%< substrate protein remaining %≤ 100%) | B (80%< substrate protein remaining %≤ 100%) | A (0% ≤ substrate protein remaining % ≤ 80%) | A (0% ≤ substrate protein remaining % ≤ 80%) | B (80%< substrate protein remaining %≤ 100%) | B (80%< substrate protein remaining %≤ 100%)
5 | O=C1CCN(N2Cc3cc(CN4CCN(c5ncc6ccsc6n5)CC4)ccc3C2=O)C(=O)N1 [GT-08081, 1-(1-oxo-5-((4-(thieno[2,3-d]pyrimidin-2-yl)piperazin-1-yl)methyl)isoindolin-2-yl)dihydropyrimidine-2,4(1H,3H)-dione] |  |  |  |  |  |  |  |  |  | 18 to 25 | 25 to 30 | 18 to 25 | 5 to 10 | A (0% ≤ substrate protein remaining % ≤ 80%) | B (80%< substrate protein remaining %≤ 100%) | B (80%< substrate protein remaining %≤ 100%) | B (80%< substrate protein remaining %≤ 100%) | A (0% ≤ substrate protein remaining % ≤ 80%) | A (0% ≤ substrate protein remaining % ≤ 80%)
6 | O=C1CCN(N2C(=O)c3ccc(CN4CCC(c5ncnc6sc(-c7ccccc7)cc56)CC4)cc3C2=O)C(=O)N1 [GT-08108, 2-(2,4-dioxotetrahydropyrimidin-1(2H)-yl)-5-((4-(6-phenylthieno[2,3-d]pyrimidin-4-yl)piperidin-1-yl)methyl)isoindoline-1,3-dione] |  |  |  |  |  |  |  | 20 to 40 | 15 to 20 |  |  | 25 to 40 | 18 to 25 | A (0% ≤ substrate protein remaining % ≤ 80%) | A (0% ≤ substrate protein remaining % ≤ 80%) | A (0% ≤ substrate protein remaining % ≤ 80%) | A (0% ≤ substrate protein remaining % ≤ 80%) | A (0% ≤ substrate protein remaining % ≤ 80%) | A (0% ≤ substrate protein remaining % ≤ 80%)
7 | O=C1CCN(N2C(=O)c3ccc(CN4CCC(c5ncnc6scc(-c7ccccc7)c56)CC4)cc3C2=O)C(=O)N1 [GT-08109, 2-(2,4-dioxotetrahydropyrimidin-1(2H)-yl)-5-((4-(5-phenylthieno[2,3-d]pyrimidin-4-yl)piperidin-1-yl)methyl)isoindoline-1,3-dione] |  |  |  |  |  |  |  | 15 to 20 | 1 to 5 |  |  | 18 to 25 | 5 to 10 | A (0% ≤ substrate protein remaining % ≤ 80%) | A (0% ≤ substrate protein remaining % ≤ 80%) | A (0% ≤ substrate protein remaining % ≤ 80%) | A (0% ≤ substrate protein remaining % ≤ 80%) | A (0% ≤ substrate protein remaining % ≤ 80%) | A (0% ≤ substrate protein remaining % ≤ 80%)
8 | Cc1nc(C2CCN(Cc3ccc4c(c3)C(=O)N(N3CCC(=O)NC3=O)C4=O)CC2)c2c(-c3ccccc3)csc2n1 [GT-08110, 2-(2,4-dioxotetrahydropyrimidin-1(2H)-yl)-5-((4-(2-methyl-5-phenylthieno[2,3-d]pyrimidin-4-yl)piperidin-1-yl)methyl)isoindoline-1,3-dione] |  |  |  |  |  |  |  | 20 to 40 | 10 to 15 | 10 to 18 | 18 to 25 | 25 to 40 | 15 to 18 | A (0% ≤ substrate protein remaining % ≤ 80%) | A (0% ≤ substrate protein remaining % ≤ 80%) | A (0% ≤ substrate protein remaining % ≤ 80%) | A (0% ≤ substrate protein remaining % ≤ 80%) | A (0% ≤ substrate protein remaining % ≤ 80%) | A (0% ≤ substrate protein remaining % ≤ 80%)
9 | Cc1nc(C2CCN(Cc3ccc4c(c3)CN(N3CCC(=O)NC3=O)C4=O)CC2)c2c3c(sc2n1)CCC3 [GT-08114, 1-(5-((4-(2-methyl-6,7-dihydro-5H-cyclopenta[4,5]thieno[2,3-d]pyrimidin-4-yl)piperidin-1-yl)methyl)-1-oxoisoindolin-2-yl)dihydropyrimidine-2,4(1H,3H)-dione] |  |  |  |  |  |  |  | 20 to 40 | 10 to 15 |  |  | 18 to 25 | 18 to 25 | B (80%< substrate protein remaining %≤ 100%) | B (80%< substrate protein remaining %≤ 100%) | B (80%< substrate protein remaining %≤ 100%) | B (80%< substrate protein remaining %≤ 100%) | B (80%< substrate protein remaining %≤ 100%) | A (0% ≤ substrate protein remaining % ≤ 80%)
10 | Cc1csc2ncnc(C3=CCN(Cc4ccc5c(c4)CN(N4CCC(=O)NC4=O)C5=O)CC3)c12 [GT-08117, 1-(5-((4-(5-methylthieno[2,3-d]pyrimidin-4-yl)-3,6-dihydropyridin-1(2H)-yl)methyl)-1-oxoisoindolin-2-yl)dihydropyrimidine-2,4(1H,3H)-dione] |  |  |  |  |  |  |  | 20 to 40 | 20 to 40 |  |  | 18 to 25 | 18 to 25 | B (80%< substrate protein remaining %≤ 100%) | B (80%< substrate protein remaining %≤ 100%) | B (80%< substrate protein remaining %≤ 100%) | A (0% ≤ substrate protein remaining % ≤ 80%) | A (0% ≤ substrate protein remaining % ≤ 80%) | A (0% ≤ substrate protein remaining % ≤ 80%)
11 | NCc1ccc2c(c1)CN(N1CCC(=O)NC1=O)C2=O [GT-08118, 1-(5-(aminomethyl)-1-oxoisoindolin-2-yl)dihydropyrimidine-2,4(1H,3H)-dione] |  |  |  |  |  |  |  | 20 to 40 | 20 to 40 | 40 to 60 | 40 to 60 | 18 to 25 | 25 to 40 |  |  |  |  |  | 
